We go through six compounds from patent publication US20230390283A1, “USES OF CHK2 INHIBITORS” (The University of Birmingham, priority 2020, published 2023).

The subject of series [1] is primary adult rat dorsal root ganglion neuron (DRGN) cultures. Put plainly: DRGN survival and neurite outgrowth in culture. It is filed as cell-based. Conditions: for optimal concentration that promoted DRGN/RGC survival and neurite outgrowth: preliminary experiments, DRGN/RGC cultures. The procedure:
(§1) Rat DRGN and retinal cultures. […] Cells were cultured for 4 days in a humidified chamber at 37° C. and 5% CO2 before being subjected to quantitative RT-PCR or immunocytochemistry, as described below.
Immunocytochemistry. […] Slides were then viewed with an epi-fluorescent Axioplan 2 microscope, equipped with an AxioCam HRc and running Axiovision Software (all from Carl Zeiss, Hertfordshire, UK).

Series [2] relates to dorsal column (DC) axons. The series can be described thus: DC crush injury model: GAP43+ DC axon regeneration. It is filed as in vivo, rat.
The test system of series [3] is T8 dorsal column (DC) crush model of spinal cord injury. Put plainly: DC crush injury model: electrophysiology (compound action potentials). It is filed as in vivo, rat. The note with it: 6 weeks after DC injury. Here is the method:
(§2) DC crush injury model. Rats were injected subcutaneously with 0.05 ml Buprenorphine to provide analgesia prior to surgery and anaesthetised using 5% of Isoflurane in 1.8 ml/l of O2 with body temperature and heart rate monitored throughout surgery.
(§3) Chk2 inhibition studies in the DC crush injury model. […] Chk1i (LY2603618) was used at equimolar concentrations for each experiment. Rats were killed in a rising concentration of CO2 at either 28 d for immunohistochemistry and western blot analyses or 6 weeks for electrophysiology and functional tests.
Electrophysiology. […] Briefly, with the experimenter masked to the treatment conditions, silver wire electrodes applied single-current pulses (0.05 ms) through a stimulus isolation unit in increments (0.2, 0.3, 0.6, 0.8, and 1.2 mA) at L1-L2 and compound action potentials (CAP) were recorded at C4-C5 along the surface of the midline spinal cord. Spike 2 software was then used to calculate CAP amplitudes between the negative deflection after the stimulus artifact and the next peak of the wave. CAP area was calculated by rectifying the negative CAP component (full-wave rectification) and measuring its area. At the different stimulation intensities. […] Representative CAP traces are processed output data from Spike 2 software.

Series [4] has as its system RGC. Put plainly: Optic neuritis model: RGC survival (Fluorgold backfilled wholemounts). The format is in vivo, mice. Conditions: 21 days after induction. Here is the method:
(§4) Induction of optic neuritis. […] Animals were intraperitoneally injected with 150 ng Bordetella pertussis toxin on day 0 and 2. Animals were monitored daily and assessed for the development of EAE. At the end of the experiment, animals were then killed by CO2 overdose.
(§5) Assessment of RGC survival.

For series [5], the system named is RGC function. Conditions: 24 days after ONC.
For series [6], the system named is T8 dorsal column (DC) crush model of spinal cord injury. The series can be described thus: DC crush injury model: horizontal ladder test (locomotor function). The format is in vivo, rat. Conditions: followed over 6 weeks. Here is the method:
as §2, §3
(§6) Functional tests. […] Experiments were performed by 2 observers (treatment conditions were masked) in the same order, the same time of day and each test performed for 3 individual trials.
Horizontal ladder test: This tests the animals locomotor function and is performed on a 0.9-meter-long horizontal ladder with a diameter of 15.5 cm and randomly adjusted rungs with variable gaps of 3.5-5.0 cm. The total number of steps taken to cross the ladder and the left and right rear paw slips being were recorded and the mean error rate was then calculated by dividing the number of slips by the total number of steps taken.

In series [7] the test system is RGC. The series can be described thus: Glaucoma model: RGC survival in retinal wholemounts. It is filed as in vivo, rat. The note with it: 30 days after induction of glaucoma. The procedure: Induction of glaucoma. […] At day zero, a self-sealing incision was made though the cornea into the anterior chamber enabling twice weekly intracameral injections of 3.5 μl of TGFβ2 (5 ng/μl) using glass micropipettes for 30 days. Vehicle, comprising saline, was injected in control groups. Intraocular pressure was measured using an iCare Tonolab rebound tonometer (Icare, Helsinki, Finland).
as §5

The test system of series [8] is T8 dorsal column (DC) crush model of spinal cord injury. The series can be described thus: DC crush injury model: tape sensing and removal test (sensory function). Conditions: followed over 6 weeks. The format is in vivo, rat. The procedure: as §2, §3, §6
Series [9] relates to retinal nerve fibre layer. Put plainly: Optic neuritis model: RNFL thickness by OCT. The format is in vivo, mice. Conditions: day 21. The procedure:
as §4
Measurement of RNFL thinning using optical coherence tomography (OCT). […] Examinations were recorded in both right (oculus dextrus, OD) and left eyes (oculus sinister, OS) of each animal at day 0 and day 21 after immunisation. […] A RNFL single exam using the automatic real time (ART) mode (allows averaging of 100 recordings) was produced for each mouse eye, which automatically measured RNFL thickness (μm) in a 30° circle surrounding the optic nerve head.

The test system of series [10] is pChk2^T68 and pChk2^T383. The note with it: western blot and densitometry. Here is the method: as §1
Protein extraction and western blot analysis. […] For densitometry, western blots were scanned into Adobe Photoshop (Adobe Systems Inc, San Jose, Calif., USA) and analysed using the built-in-macros for gel analysis in ImageJ (NIH, USA, http://imagej.nih.clov/ij).
Background: In western blotting, separated proteins are transferred to a membrane and probed.

“Also recorded” adds a separate entry of the source.

For the compound `NC(=O)c1ccc2[nH]c(-c3ccc(Oc4ccc(Cl)cc4)cc3)nc2c1` [BML-277], the “optimal concentration that promoted DRGN/RGC survival and neurite outgrowth” value in series [1] worked out at 5 µM.

Consider `COc1cc2nc(-c3cc(F)ccc3O)nc(N[C@@H]3CNC[C@H]3C(C)(C)O)c2cc1OC` [CCT241533], for which, in series [1], the “optimal concentration that promoted DRGN/RGC survival and neurite outgrowth” value came to 10 µM.

`Cc1cnc(NC(=O)Nc2cc(Br)c(C)cc2OC[C@@H]2CNCCO2)cn1` [LY2603618]: the “DC axon regeneration beyond the lesion site” value in series [2] (listed as Chk1 i) is on record as “few GAP43^+ axons”; in [2] (listed as Chk1i), “no axon regeneration beyond the lesion site”. Besides, in [3], the “CAP area at different stimulation intensities” value is listed as “significantly attenuated”. For the same compound, the “negative CAP amplitudes” value in series [3] (different stimulation intensities) is recorded as “significantly attenuated”. Further, the “RGC survival in optic neuritis” value in series [4] is on record as “no effect”. Also, the “ERG traces and pSTR amplitude” value in [5] is listed as “no effect”. The “ladder crossing test performance” value is reported as “a deficit remaining” in series [6] (listed as Chk1 i) and “a significant deficit remains; also recorded: a deficit remaining” in series [6] (listed as Chk1i). Further, in series [7], the “RGC survival in glaucoma” value is on record as “no effect”. Besides, the “tape sensing/removal test performance” value in [8] (listed as Chk1 i) and in series [8] (listed as Chk1i) was “a significant deficit remained” throughout. Further, the “RNFL thickness in optic neuritis” value in series [9] is on record as “no effect”. The “effect on DRGN/RGC survival” value in series [1] (1-50 μM) is on record as “no effect”. The “effect on DRGN survival, % DRGN with neurites and neurite length” value in series [1] (4 days culture) is listed as “no effect”.

For the compound `COc1cccc(OCCCN)c1-c1cc(Nc2cnc(C#N)cn2)n[nH]1` [Prexasertib], in [1], the “optimal concentration that promoted DRGN/RGC survival and neurite outgrowth” value came to 10 µM.

Consider CCT241533, for which the “Chk2 phosphorylation (pChk2^T68, pChk2^T383) in DRGN cultures” value in series [10] is “suppresses”.

With “FGF2: positive control for DRGN cultures, pre-optimised 10 ng/ml”, the “% DRGN with neurites” value in series [1] (4 days culture) is reported as 42%. Also, in [1] (4 days culture, controls 12 μm), the mean neurite length is 180 μm.
